We go through one compound from paper PMC9532951, “Identification and characterization of a novel SNAT2 (SLC38A2) inhibitor reveals synergy with glucose transport inhibition in cancer cells” (Frontiers in Pharmacology, 2022).

For the test, the target named is T1, B0AT1 (SLC6A19) (Homo sapiens, UniProt Q695T7).
T1 construct: expressed in transfected cells
T1 sequence (Q695T7 1-634): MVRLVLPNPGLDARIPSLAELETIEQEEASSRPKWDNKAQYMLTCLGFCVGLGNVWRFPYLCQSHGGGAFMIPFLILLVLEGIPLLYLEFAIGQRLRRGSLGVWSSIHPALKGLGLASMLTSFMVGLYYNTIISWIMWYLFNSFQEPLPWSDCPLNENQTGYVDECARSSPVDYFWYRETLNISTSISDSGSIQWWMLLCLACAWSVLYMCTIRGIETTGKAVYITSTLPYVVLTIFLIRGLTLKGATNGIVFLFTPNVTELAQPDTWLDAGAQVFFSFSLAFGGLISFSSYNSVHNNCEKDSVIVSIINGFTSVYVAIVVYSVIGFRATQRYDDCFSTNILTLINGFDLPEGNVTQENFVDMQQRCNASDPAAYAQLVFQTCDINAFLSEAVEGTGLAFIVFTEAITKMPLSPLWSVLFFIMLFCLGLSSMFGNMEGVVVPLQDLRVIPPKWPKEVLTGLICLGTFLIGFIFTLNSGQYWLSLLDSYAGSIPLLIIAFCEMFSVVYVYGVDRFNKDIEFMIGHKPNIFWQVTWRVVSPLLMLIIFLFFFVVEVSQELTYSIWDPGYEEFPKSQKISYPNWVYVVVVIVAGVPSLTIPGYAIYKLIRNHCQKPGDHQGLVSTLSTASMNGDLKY
T1 sequence (Q9HBJ8 15-222 partner): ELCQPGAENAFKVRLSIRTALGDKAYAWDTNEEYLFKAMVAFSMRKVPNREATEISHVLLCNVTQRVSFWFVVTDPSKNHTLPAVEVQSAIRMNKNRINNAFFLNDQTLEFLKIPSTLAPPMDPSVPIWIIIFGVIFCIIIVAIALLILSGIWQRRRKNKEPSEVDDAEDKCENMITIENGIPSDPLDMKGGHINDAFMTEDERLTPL
Nature of the test: Leucine uptake in CHO cells stably expressing human B0AT1 and collectrin. The format is cell-based. The following applies: 150 µM leucine, hit compounds at 30 µM, n = 3.

For `CCNC(=O)/C=C/c1cccc(Br)c1` [Cinromide], the “Leucine uptake, Mean” value was 19.8324 nmol / mg protein x 6 min.
